Patent publication US20220304929A1, “LIPIDS FOR DELIVERY OF CHARGED MATERIAL, FORMULATIONS THEREOF AND METHOD FOR MAKING SAME” (INTEGRATED NANOTHERAPEUTICS INC., priority 2019, published 2022)

Tests used:
[1] = HA incorporation into LNP (HA:Lipid ratio); format: physicochemical; conditions: LNP containing ionizable lipid and HA (8-15 kDa)
Procedure: (§1) Lipid concentrations were determined by measuring total cholesterol using the Cholesterol E enzymatic assay kit from Wako Chemicals USA (Richmond, Va.).
Hyaluronic acid was used as an example of anionic cargos. LNPs were prepared as described in Example 2 containing HA with a molecular weight of 8-15 kDa.

[2] = Peptide incorporation into LNP (Peptide:Lipid ratio; BCA or CBQCA protein quantification); format: physicochemical
Procedure: as §1
Quantification of protein/peptide was performed with the use of either the BCA Protein Assay (Pierce) or the CBQCA Protein Quantitation Kit (Invitrogen) according to the manufacturer's instructions.

[3] = LNP particle size and polydispersity by dynamic light scattering; format: physicochemical
factor VII (FVII) = assay: LNP-siRNA activity in the mouse Factor VII model; format: in vivo; conditions: C57Bl/6 mice, i.v. tail vein, 0.03-0.3 mg/kg siRNA, 24 hours post-injection
Procedure: Lipid nanoparticle (LNP) formulations containing cationic lipids of the disclosure and FVII siRNA were injected via a tail vein in C57Bl/6 wild-type mice and the levels of FVII in plasma was measured post injection. The mice were injected with LNP-siRNA at doses of 0.03 (left bar), 0.1 (middle bar) and 0.3 mg/kg (right bar). The cationic lipids incorporated in the LNPs were INT-A001, INT-A002, INT-A003 and INT-A007.
LNPs prepared as described in Example 2 containing siRNA against factor VII (FVII) were diluted with PBS such that injection volumes were maintained at 10 mL/kg body weight and administered (based on siRNA concentration) intravenously via tail vein in 6 to 8 weeks old female C57Bl/6 mice (Charles River Laboratories, Wilmington, Mass.). At 24 hours post-injection, animals were euthanized and blood was collected via intracardiac sampling. Blood samples were allowed to coagulate at 4° C. overnight and the serum was separated followed by centrifugation for 15 min at 12,000 rpm. The serum FVII levels were determined using the Biophen VII chromogenic assay (Aniara, Mason, Ohio) according to the protocol of the manufacturer.

[4] = system: luciferase expressing human prostate cells (22Rv1); assay: LNP-siRNA luciferase gene silencing in cultured 22Rv1 cells; format: cell-based; conditions: 1 ug/mL siRNA, 16-24 hr
Procedure: Cells were treated with lipid nanoparticle (LNP) formulations containing ionizable lipids of the disclosure and Luciferase siRNA at concentrations of 1.0 (left bar), 0.3 (middle bar) and 0.1 μg/mL (right bar). The level of luminescence was measured post treatment. The ionizable lipids incorporated in the LNPs were 2-(dimethylamino)ethyl (±)-syn-9,10-dilinoleoxystearate (INT-A001), 3-(diethylamino)propyl (±)-syn-9,10-dilinoleoxystearate (INT-A002), 3-(dimethylamino)propyl (±)-syn-9,10-dilinoleoxystearate (INT-A003), 2-(diethylamino)ethyl (±)-syn-9,10-dilinoleoxystearate (INT-A004), 3-(dimethylamino)propyl (12R)-linoleoxyoleate (INT-A005), 3-(diethylamino)propyl (syn-9,10,12R)-trilinoleoxystearate (INT-A006), and 3-(diethylamino)propyl (±)-syn-9,10-bis(2-hexyldecanoyloxy)stearate (INT-A007).
The level of luminescence was measured 16-24 hr post treatment and the relative luminescence is ranked from highest (left) to lowest (right).
The activity of the ionizable lipids in vitro was evaluated in luciferase expressing human prostate cells (22Rv1). LNPs containing siRNA against firefly luciferase were prepared as described in Example 2. […] Equal amounts of Steady-Glo reagent (Promega) was added to each sample and the level of luminescence was determined using a Synergy LX plate reader (BioTek). […]

[5] = RNA or antisense oligonucleotide encapsulation efficiency (Quant-iT Ribogreen RNA / Oligreen ssDNA assays); format: physicochemical
Procedure: The RNA or antisense oligonucleotide encapsulation efficiency was determined using the Quant-iT Ribogreen RNA or Oligreen ssDNA Assays, respectively (Life Technologies, Burlington, ON). Briefly, LNP was incubated at 37° C. for 10 min in the presence or absence of 1% Triton X-100 (Sigma-Aldrich, St. Louis, Mo.) followed by the addition of the Ribogreen or Oligreen reagent. The fluorescence intensity (Ex/Em: 480/520 nm) was determined and samples treated with Triton X-100 represent total nucleic acid while untreated samples represent unencapsulated nucleic acid.
To prepare the LNPs, ionizable lipid, DSPC, cholesterol and PEG-DMPE were dissolved in ethanol. The siRNA was dissolved in pH 4.0-6.2 buffer composed of 10-50 mM acetate, succinate or citrate. In select cases, 10-50 mM 4-(2-Hydroxyethyl)piperazine-1-ethanesulfonic acid (HEPES) or 2-(N-Morpholino)ethanesulfonic acid (MES) buffer was used. LNP were prepared by rapidly mixing the lipid components in ethanol (in molar ratio of 50/10/38.5/1.5 of […]) with nucleic acids in aqueous buffer at a volumetric flow rate ratio of 1:3 (ethanol to aqueous, combined flow rate >12 mL/min) at room temperature. Typically, siRNA/lipids ratios were targeted for 0.056 wt/μmol. The product was then dialyzed against 1× phosphate-buffered saline (PBS) at pH 7.4 for 24 hours to remove residual ethanol and to raise the pH. PBS was refreshed after 4 hours.

[6] = LNP containing ionizable lipid and a 2.0 kDa acidic peptide (net charge -3)
[7] = LNP containing ionizable lipid and a 4.2 kDa acidic peptide (net charge -3)
[8] = LNP containing ionizable lipid and HA (8-15 kDa)
[9] = LNP containing ionizable lipid and antisense oligonucleotide
[10] = LNP containing ionizable lipid and siRNA

HA:Lipid [1]: 0.096 wt/wt
Peptide:Lipid [2, 6]: 0.075 wt/wt
Peptide:Lipid [2, 7]: 0.162 wt/wt
Particle Diameter [3, 8]: 58 nm
Polydispersity index (PDI) [3, 8]: 0.065
Particle Diameter [3, 6]: 79 nm
Polydispersity index (PDI) [3, 6]: 0.019
Particle Diameter [3, 7]: 52 nm
Polydispersity index (PDI) [3, 7]: 0.049
Particle Diameter [3, 9]: 55 nm
Polydispersity index (PDI) [3, 9]: 0.070
Particle Diameter [3, 10]: 59 nm
Polydispersity index (PDI) [3, 10]: 0.021
Encapsulation Efficiency [5, 9]: 84%
Encapsulation Efficiency [5, 10]: 84%
Compound: CCCCCCCCC(CCCCCC)C(=O)O[C@@H](CCCCCCCC)[C@@H](CCCCCCCC(=O)OCCCN(CC)CC)OC(=O)C(CCCCCC)CCCCCCCC (mixture of isomers) [INT-A007, 3-(Diethylamino)propyl (±)-syn-9,10-bis(2-hexyldecanoyloxy)stearate]
Activity in mediating FVII gene-silencing (residual serum FVII levels) (factor VII (FVII)): active in mediating gene-silencing
Relative activity in silencing of the firefly luciferase gene (luminescence) [4]: most active
